From patent US9834542B2, “LXR modulators” (BRISTOL-MYERS SQUIBB COMPANY, priority 2013, dated 2017)
pEC50: −log10 of the molar value.

Target: T1, LXRβ (Homo sapiens, UniProt P55055)
T1 construct: Co-transfection expression plasmids, comprising full-length LXRα (pCMX-h LXRα[…] or LXRβ (pCMX-hLXRβ)); expressed in transfected cells; host or cells: CV-1 African Green Monkey Kidney Cells
T1 sequence (P55055 1-460): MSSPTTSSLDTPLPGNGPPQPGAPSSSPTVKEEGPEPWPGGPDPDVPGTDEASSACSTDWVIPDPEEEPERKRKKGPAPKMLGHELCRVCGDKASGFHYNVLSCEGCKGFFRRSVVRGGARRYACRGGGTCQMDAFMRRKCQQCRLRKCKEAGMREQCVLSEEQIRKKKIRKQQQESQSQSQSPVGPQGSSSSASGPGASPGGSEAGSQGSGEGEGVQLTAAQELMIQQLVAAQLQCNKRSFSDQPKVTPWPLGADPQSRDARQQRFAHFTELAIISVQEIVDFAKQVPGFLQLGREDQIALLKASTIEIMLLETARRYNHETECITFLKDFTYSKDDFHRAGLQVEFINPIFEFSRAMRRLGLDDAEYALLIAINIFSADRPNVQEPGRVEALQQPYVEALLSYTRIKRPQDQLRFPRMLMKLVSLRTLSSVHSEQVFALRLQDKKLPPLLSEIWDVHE
T1 sequence (P19793 1-462 partner): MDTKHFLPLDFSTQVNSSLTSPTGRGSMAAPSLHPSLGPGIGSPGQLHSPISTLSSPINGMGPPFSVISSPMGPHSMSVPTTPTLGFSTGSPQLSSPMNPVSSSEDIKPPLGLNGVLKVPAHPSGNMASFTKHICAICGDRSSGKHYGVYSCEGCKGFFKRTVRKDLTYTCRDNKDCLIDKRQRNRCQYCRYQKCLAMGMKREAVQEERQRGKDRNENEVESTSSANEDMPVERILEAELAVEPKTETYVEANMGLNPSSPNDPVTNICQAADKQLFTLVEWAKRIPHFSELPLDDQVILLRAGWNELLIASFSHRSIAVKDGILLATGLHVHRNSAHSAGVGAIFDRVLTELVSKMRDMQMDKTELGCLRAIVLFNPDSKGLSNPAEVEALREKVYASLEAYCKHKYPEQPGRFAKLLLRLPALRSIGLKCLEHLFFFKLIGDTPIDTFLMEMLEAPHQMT
Experiment: Co-transfection assay (LXRE luciferase reporter), LXRβ
Format: cell-based
Set-up: % Efficacy: concentration or dose not given beside the values
Details: for pEC50: CV-1 cells transfected with pCMX-hLXRβ and LXREx1-Tk-Luciferase, 20 hours incubation; for Emax: read-out: % Efficacy
Procedure, shortened: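 Cell-based LXRβ agonism measured as LXRE-luciferase induction in transiently transfected CV-1 cells after 20 h treatment. Potency is the curve-fit EC50; efficacy is expressed as percent of a full-agonist control's maximal response.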

[1] = LXRβ co-transfection, relative to high control 1-(2,4-difluorobenzyl)-2-oxo-6-(4-phenoxyphenyl)-4-(trifluoromethyl)-1,2-dihydropyridine-3-carbonitrile

Row | SMILES | pEC50 | Emax [1] | % Efficacy [1]
1 | Cc1nc(C(F)(F)F)cn1-c1ccc(-c2cc(Cl)c(CO)c(S(C)(=O)=O)c2)cc1-n1nncc1Cc1cccc(Cl)c1 [Example 117, (3-chloro-3′-{5-[(3-chlorophenyl)methyl]-1H-1,2,3-triazol-1-yl}-5-(methylsulfonyl)-4′-[2-methyl-4-(trifluoromethyl)-1H-imidazol-1-yl]biphenyl-4-yl)methanol] | 5.99 | 76% | 
2 | Cc1nc(-c2cc(-c3cc(F)c(CO)c(S(C)(=O)=O)c3)ccc2-n2cc(C(F)(F)F)nc2C)c(-c2ccc(OC(F)F)c(OCC3CC3)c2)o1 [Example 383] | 7.64 | 67% | 
3 | Cc1nc(-c2ccccc2OC(F)(F)F)c(-c2cc(-c3cc(F)c(CO)c(S(C)(=O)=O)c3)ccc2-n2cc(C(F)(F)F)nc2C)o1 [Example 632, (3-fluoro-3′-(2-methyl-4-(2-(trifluoromethoxy)phenyl)oxazol-5-yl)-4′-(2-methyl-4-(trifluoromethyl)-1H-imidazol-1-yl)-5-(methylsulfonyl)-[1,1′-biphenyl]-4-yl)methanol] | 7.47 | 41% | 
4 | Cc1nc(-c2ccc(OC(F)F)cc2)c(-c2cc(-c3cccc(S(C)(=O)=O)c3)ccc2-n2cc(C(F)(F)F)nc2C)o1 [Example 619, 4-(4-(difluoromethoxy)phenyl)-2-methyl-5-(4-(2-methyl-4-(trifluoromethyl)-1H-imidazol-1-yl)-3′-(methylsulfonyl)-[1,1′-biphenyl]-3-yl)oxazole] | 7.29 | 112% | 
5 | Cc1nc(-c2cc(-c3cc(F)c(CO)c(S(C)(=O)=O)c3)ccc2-n2cc(C(C)O)nc2C)c(-c2ccc3c(c2)OC(F)(F)O3)o1 (single isomer, unassigned) [Example 515, 1-(1-(3-(5-(2,2-difluorobenzo[d][1,3]dioxol-5-yl)-2-methyloxazol-4-yl)-3′-fluoro-4′-(hydroxymethyl)-5′-(methylsulfonyl)-[1,1′-biphenyl]-4-yl)-2-methyl-1H-imidazol-4-yl)ethanol] | 5.92 |  | 19%
6 | CS(=O)(=O)c1cccc(-c2ccc(-n3cnc(C(F)F)c3)c(-n3nncc3-c3ccc(OC(F)(F)F)cc3)c2)c1 [Example 170, 1-{4-[4-(difluoromethyl)-1H-imidazol-1-yl]-3′-(methylsulfonyl)biphenyl-3-yl}-5-{4-[(trifluoromethyl)oxy]phenyl}-1H-1,2,3-triazole] | 5.48 | 92% | 
7 | Cc1nc(-c2cc(-c3cccc(S(=O)(=O)C(F)F)c3)ccc2-n2cc(C(F)(F)F)nc2C)c(-c2ccc3c(c2)OC(F)(F)O3)o1 [Example 417, 5-(2,2-difluorobenzo[d][1,3]dioxol-5-yl)-4-(3′-(difluoromethylsulfonyl)-4-(2-methyl-4-(trifluoromethyl)-1H-imidazol-1-yl)biphenyl-3-yl)-2-methyloxazole] | 7.37 | 56% | 
8 | Cc1nc(C(F)(F)F)cn1-c1ccc(-c2cc(Cl)c(CO)c(S(C)(=O)=O)c2)cc1-n1nncc1-c1ccc2c(c1)OC(F)(F)O2 [Example 21, {3-chloro-3′-[5-(2,2-difluoro-1,3-benzodioxol-5-yl)-1H-1,2,3-triazol-1-yl]-5-(methylsulfonyl)-4′-[2-methyl-4-(trifluoromethyl)-1H-imidazol-1-yl]biphenyl-4-yl}methanol] | 6.30 | 65% | 

The remaining lines, values ahead:

Row | pEC50 | Emax [1] | % Efficacy [1] | SMILES
9 | 6.88 | 62% |  | Cc1nc(C(F)(F)F)cn1-c1ccc(-c2cccc(S(C)(=O)=O)c2)cc1-n1nncc1C(F)(F)c1ccc(Cl)cc1 [Example 12, 5-[(4-chlorophenyl) (difluoro)methyl]-1-{3′-(methylsulfonyl)-4-[2-methyl-4-(trifluoromethyl)-1H-imidazol-1-yl]biphenyl-3-yl}-1H-1,2,3-triazole]
10 | 6.95 | 85% |  | CNS(=O)(=O)c1cccc(-c2cc(F)c(-n3cc(C(F)(F)F)nc3C)c(-n3nncc3-c3ccc(OC(F)(F)F)cc3)c2)c1 [Example 205, 3′-fluoro-N-methyl-4′-[2-methyl-4-(trifluoromethyl)-1H-imidazol-1-yl]-5′-(5-{4-[(trifluoromethyl)oxy]phenyl}-1H-1,2,3-triazol-1-yl)biphenyl-3-sulfonamide]
11 | 6.83 | 84% |  | Cc1nc(C(F)(F)F)cn1-c1ccc(-c2cccc(S(C)(=O)=O)c2)cc1-n1nncc1-c1ccc(OC(F)(F)F)c(F)c1 [Example 54, 5-{3-fluoro-4-[(trifluoromethyl)oxy]phenyl)-1-{3′-(methylsulfonyl)-4-[2-methyl-4-(trifluoromethyl)-1H-imidazol-1-yl]biphenyl-3-yl}-1H-1,2,3-triazole]
12 | 7.66 | 86% |  | CCCc1nc(-c2cc(-c3cccc(S(C)(=O)=O)c3)ccc2-n2cc(C(F)(F)F)nc2C)c(-c2ccc(OC(F)(F)F)cc2)o1 [Example 520, 4-(4-(2-methyl-4-(trifluoromethyl)-1H-imidazol-1-yl)-3′-(methylsulfonyl)-[1,1′-biphenyl]-3-yl)-2-propyl-5-(4-(trifluoromethoxy)phenyl)oxazole]
13 | 6.90 | 97% |  | Cc1nc(C(F)(F)F)cn1-c1ccc(-c2cccc(S(C)(=O)=O)c2)cc1-n1nncc1-c1ccc(Cl)c(Cl)c1 [Example 75, 5-(3,4-dichlorophenyl)-1-{3′-(methylsulfonyl)-4-[2-methyl-4-(trifluoromethyl)-1H-imidazol-1-yl]biphenyl-3-yl}-1H-1,2,3-triazole]
14 | 5.55 | 139% |  | Cc1nc(C(F)(F)F)cn1-c1ccc(-c2cccc(C(C)(C)C(=O)O)c2)cc1-n1nncc1-c1ccc(OC(F)(F)F)cc1 [Example 95, 2-methyl-2-{4′-[2-methyl-4-(trifluoromethyl)-1H-imidazol-1-yl]-3′-(5-{4-[(trifluoromethyl)oxy]phenyl}-1H-1,2,3-triazol-1-yl)biphenyl-3-yl}propanoic acid]
15 | 5.96 | 63% |  | Cc1nc(C(F)(F)F)cn1-c1ccc(-c2cccc(S(C)(=O)=O)c2)cc1-n1nncc1C(=O)c1cccc(C(F)(F)F)c1 [Example 137, (1-{3′-(methylsulfonyl)-4-[2-methyl-4-(trifluoromethyl)-1H-imidazol-1-yl]biphenyl-3-yl}-1H-1,2,3-triazol-5-yl)[3-(trifluoromethyl)phenyl]meth-anone]
16 | 6.90 | 81% |  | Cc1nc(C(F)(F)F)cn1-c1ccc(-c2cc(F)c(CO)c(S(C)(=O)=O)c2)cc1-n1nncc1-c1ccc(Cl)cc1Cl [Example 67, {3′-[5-(2,4-dichlorophenyl)-1H-1,2,3-triazol-1-yl]-3-fluoro-5-(methylsulfonyl)-4′-[2-methyl-4-(trifluoromcehyl)-1H-imidazol-1-yl]biphenyl-4-yl}methanol]
17 | 5.95 | 97% |  | Cc1nc(C(F)(F)F)cn1-c1cc(F)c(-c2cccc(S(C)(=O)=O)c2)cc1-n1nncc1-c1ccc(Cl)cc1 [Example 100, 5-(4-chlorophenyl)-1-{6-fluoro-3′-(methylsulfonyl)-4-[2-methyl-4-(trifluoromethyl)-1H-imidazol-1-yl]biphenyl-3-yl}-1H-1,2,3-triazole]
18 | 6.39 | 57% |  | Cc1nc(C(F)(F)F)cn1-c1ccc(-c2cccc(S(C)(=O)=O)c2)cc1-n1nncc1C(C)(F)c1ccc(Cl)cc1 (stereo not shown) [Example 224, 5-(1-(4-chlorophenyl)-1-fluoroethyl)-1-(4-(2-methyl-4-(trifluoromethyl)-1H-imidazol-1-yl)-3′-(methylsulfonyl)-[1,1′-biphenyl]-3-yl)-1H-1,2,3-triazole]
19 | 6.01 | 59% |  | Cc1nc(C(F)(F)F)cn1-c1ccc(-c2cccc(S(C)(=O)=O)c2)cc1-n1nncc1Cc1cccc(OC(F)(F)F)c1 [Example 116, 1-{3′-(methylsulfonyl)-4-[2-methyl-4-(trifluoromethyl)-1H-imidazol-1-yl]biphenyl-3-yl}-5-({3-[(trifluoromethyl)oxy]phen-yl}methyl)-1H-1,2,3-triazole]
20 | 6.84 | 87% |  | Cc1nc(-c2cc(-c3cccc(S(C)(=O)=O)c3)ccc2-n2cc(C(F)(F)F)nc2C)c(-c2ccc(F)cc2)o1 [Example 505, 5-(4-fluorophenyl)-2-methyl-4-(4-(2-methyl-4-(trifluoromethyl)-1H-imidazol-1-yl)-3′-(methylsulfonyl)biphenyl-3-yl)oxazole]
